# Experiments:
# [1] = Thermodynamic aqueous solubility in USP phosphate buffer (Example 25); assay type: physicochemical; conditions: aqueous buffer, thermodynamic from solid; USP phosphate buffer pH 7.4, 24 h at 20° C., LC-MS/MS; read-out: Thermodynamic aq solubility
# Experimental: The method described here was developed to accurately determine the aqueous solubility of compounds of the invention in buffer solution at a given pH.
# Solid material (1 mg) of test compound is added to a glass vial followed by 1 ml of buffer solution (pH 7.4 if another pH not is stated). The solution is left on an orbital shaker for 24 h at 20° C. After incubation, the remaining solid material is separated from solution and the solubility is quantified using LC-MS/MS.
# Prepare 0.2 M monobasic potassium phosphate solution by dissolving 27.22 g of KH2PO4 (MW=136.09 g/mol) in water, dilute with water to 1000 mL.
# Add 250 mL of the monobasic potassium phosphate solution in a 1000 mL volumetric flask together with 195.5 mL 0.2M NaOH (aq). Add water to 1000 mL. Check pH.
# Compounds of the invention/examples to be tested were provided as solid material, weighed into glass vials (2 mL). Each vial contains approximately 1 mg solid compound, two vials/compound are prepared, i.e. duplicate samples of each compound. If a freshly prepared 10 mM DMSO stock solution was available, this solution was used for MS optimization and preparation of standards. If a DMSO-stock solution was not available, a 10 mM solution from solid material 1 mg was prepared.
# • Test compounds are employed as solid material. Since duplicate samples are prepared for each compound, each test compound arrives in two vials (1+1 mg). Samples are denoted as sample 1 and 2. • Note amount of substance in each vial. Add USP phosphate buffer pH 7.4 (1 mL) to each sample vial and seal vials using screw caps. Determine whether the solutions are saturated or if compounds are dissolved, note appearance and time. Start incubation; the samples are incubated on an orbital shaker (450 rpm) at 20° C. for 24 hours.
# • Take out the 1 mM DMSO-stock solutions of compounds that are to be tested from freezer. If no 1 mM solutions are available, use master solutions with concentration of 10 mM. Allow the solutions to thaw at rt. • Collect two 96-deep well plates, glass inserts, sealing film, and an 8-channel expandable pipette with tall tips. • Abort shaking after 24 hour. • Note if samples are saturated or if compounds have dissolved. • Transfer 720 μL of sample slurry from each sample vial into glass inserts in a 96-deep well plate using an 8-channel expandable pipette. Samples 1 and 2 are transferred to separate plates. Thus, all samples 1 are placed in one plate and all samples 2 in the second plate. • Seal the plates using sealing film. • Centrifuge the plates at 3000 rpm for 15 min at rt. Set acceleration to 9 and brake to 7 (9=fastest acc/brake, 0=slowest acc/brake). • Transfer the supernatants to new glass inserts using an 8-channel pipette, centrifuge samples a second time. • Repeat the procedure above, i.e. centrifuge samples a third time. • After the third centrifugation, transfer supernatant to glass vials, seal vials with screw caps. Control that the solutions are clear and that no particles are present in sample. If solid material is observed, an additional centrifugation step is performed. • Standards are prepared from DMSO-stock solutions (1 or 10 mM). For each compound, transfer […] 1 mM solution to a glass vial, add DMSO (90 μL) to reach a final concentration of 100 μM, seal with screw cap and mix solution quickly on a vortex mixer. Further dilute the 100 μM solution with a 1:1 mixture of acetonitrile and USP phosphate buffer (pH 7.4) to standards with concentration 1000, 500, 100, 25, 2, and 1 nM. Standards are prepared in test tubes.
# • Place standards in autosampler. • Try out the dilution of solubility samples so that their response will be within the standard curve. Dilute solubility sample one (or two) with the 1:1 mixture of acetonitrile:buffer. […]
# LTC4 synthase = target: T1, LTC4 synthase (Homo sapiens, UniProt Q16873); assay: Test 1 in vitro assay: LTC4 synthase converts LTA4 to LTC4, HTRF detection; assay type: biochemical; set-up: made in house; host or cells: Pichia pastoris; conditions: Test 1 (unless otherwise indicated)
# T1 sequence (Q16873 1-150): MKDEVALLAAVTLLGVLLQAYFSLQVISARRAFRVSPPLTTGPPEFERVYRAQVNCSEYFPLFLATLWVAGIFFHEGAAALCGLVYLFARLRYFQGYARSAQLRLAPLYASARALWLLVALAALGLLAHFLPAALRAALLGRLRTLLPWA
# Experimental: In the assay, LTC4 synthase catalyses the reaction where the substrate LTA4 is converted to LTC4. Recombinant human LTC4 synthase is expressed in Piccia pastoralis and the purified enzyme is dissolved in 25 mM tris-buffer pH 7.8 supplemented with 0.1 mM glutathione (GSH) and stored at −80° C. The assay is performed in phosphate buffered saline (PBS) pH 7.4 and 5 mM GSH in 384-well plates.
# The following is added chronologically to each well:
# 1. 48 μL LTC4 synthase in PBS with 5 mM GSH. The total protein concentration in this solution is 0.5 μg/mL. 2. 1 μL inhibitor in DMSO (final concentration 10 μM). 3. Incubation of the plate at room temperature for 10 min. 4. 1 μL LTA4 (final concentration 2.5 μM). 5. Incubation of the plate at room temperature for 5 min. 6. 10 μL of the incubation mixture is analysed using homogenous time resolved fluorescent (HTRF) detection.
# IC50 values for title compounds of the examples are depicted in the tables hereinafter (where, they are the values obtained using Test 1, unless otherwise indicated).
Compound,solubility thermodynamic at 24 h [1],IC50 (LTC4 synthase; Table 2),IC50 (LTC4 synthase)
"CN(c1ccc(Cl)cc1)c1ccc(C(=O)c2ccc(C(=O)CCC3CCCCC3)c(C(=O)O)c2)nc1 [Example 18, 5-(5-((4-Chlorophenyl)(methyl)amino)picolinoyl)-2-(3-cyclohexylpropanoyl)benzoic acid]",37 µM,59 nM,–
"COc1ccc(C2(C(=O)c3ccc(C(=O)c4ccc(N(C)c5ccc(Cl)cc5)cn4)cc3C(=O)O)CC2)cc1 [Example 10, 5-(5-((4-Chlorophenyl)(methyl)amino)picolinoyl)-2-(1-(4-methoxyphenyl)cyclopropanecarbonyl)benzoic acid]",403 µM,22 nM,–
"COc1cccc(C(=O)c2ccc(C(=O)c3ccc(Cc4ccc(Cl)cc4)cn3)cc2C(=O)O)c1 [Example 6, 5-(5-(4-Chlorobenzyl)picolinoyl)-2-(3-methoxybenzoyl)benzoic acid]",1900 µM,–,155 nM
"CN(c1ccc(Cl)cc1)c1ccc(C(=O)c2ccc(C(=O)c3cccc(O)c3)c(C(=O)O)c2)nc1 [Example 7, 5-(5-((4-Chlorophenyl)(methyl)amino)picolinoyl)-2-(3-hydroxybenzoyl)benzoic acid]",–,–,83 nM
"CN(c1ccc(Cl)cc1)c1ccc(C(=O)c2ccc(C(=O)CC3CCCC3)c(C(=O)O)c2)nc1 [Example 20, 5-(5-((4-Chlorophenyl)(methyl)amino)picolinoyl)-2-(2-cyclopentylacetyl)benzoic acid]",–,81 nM,–
COc1cccc(CC(=O)c2ccc(C(=O)c3ccc(N(C)c4ccc(Cl)cc4)cn3)cc2C(=O)O)c1 [Example 21],–,192 nM,–
"CN(c1ccc(Cl)cc1)c1ccc(C(=O)c2ccc(C(=O)C3CC3c3ccccc3)c(C(=O)O)c2)nc1 (centres unmarked) [Example 19, 5-(5-((4-Chlorophenyl)(methyl)amino)picolinoyl)-2-(2-phenylcyclopropanecarbonyl)benzoic acid]",–,141 nM,–
"COc1ccc(C(=O)c2ccc(C(=O)c3ccc(N(CC4CC4)c4ccc(Cl)cc4F)cn3)cc2C(=O)O)cc1 [1:5, 5-{5-[(4-Chloro-2-fluorophenyl)(cyclopropylmethyl)amino]picolinoyl}-2-(4-methoxybenzoyl)benzoic acid]",2480 µM,–,–
"CN(c1ccc(Cl)cc1)c1ccc(C(=O)c2ccc(C(=O)c3ccccc3)c(C(=O)O)c2)nc1 [Example 1:1, 2-Benzoyl-5-{5-[(4-chlorophenyl)(methyl)amino]picolinoyl}benzoic acid]",2580 µM,–,–
"CN(c1ccc(Cl)cc1)c1ccc(C(=O)c2ccc(C(=O)c3cccc(C=O)c3)c(C(=O)O)c2)nc1 [Example 3, 5-(5-((4-Chlorophenyl)(methyl)amino)picolinoyl)-2-(3-formylbenzoyl)benzoic acid]",–,–,52 nM
"COc1ccc(C(=O)c2ccc(C(=O)c3ccc(N(CC4CC4)c4ccc(Cl)cc4)cn3)cc2C(=O)O)cc1 [1:4, 5-{5-[(4-Chlorophenyl)(cyclopropylmethyl)amino]picolinoyl}-2-(4-methoxy-benzoyl)benzoic acid]",2210 µM,–,–
"CN(c1ccc(Cl)cc1)c1ccc(C(=O)c2ccc(C(=O)C34CC5CC(CC(C5)C3)C4)c(C(=O)O)c2)nc1 [Example 12, 2-(Adamantane-1-carbonyl)-5-(5-((4-chlorophenyl)(methyl)amino)picolinoyl)benzoic acid]",15 µM,65 nM,–
"CN(c1ccc(Cl)cc1)c1ccc(C(=O)c2ccc(C(=O)C3(c4ccccc4)CC3)c(C(=O)O)c2)nc1 [1:19, 5-{5-[(4-Chlorophenyl)(methyl)amino]picolinoyl}-2-(1-phenylcyclopropyl-carbonyl)benzoic acid]",680 µM,–,–
"O=C(c1ccc(C(=O)c2ccc3c(c2)OCCO3)c(C(=O)O)c1)c1ccc(N(CC2CC2)c2ccc(Cl)cc2)cn1 [Example 4, 5-(5-((4-Chlorophenyl)(cyclopropylmethyl)amino)picolinoyl)-2-(2,3-dihydrobenzo-[b][1,4]dioxine-6-carbonyl)benzoic acid]",–,–,21 nM
"O=C(c1ccc(C(=O)c2cccc(O)c2)c(C(=O)O)c1)c1ccc(N(CC2CC2)c2ccc(Cl)cc2)cn1 [Example 14, 5-(5-((4-Chlorophenyl)(cyclopropylmethyl)amino)picolinoyl)-2-(3-hydroxybenzoyl)benzoic acid]",1210 µM,30 nM,–
"CN(c1ccc(Cl)cc1)c1ccc(C(=O)c2ccc(C(=O)CC(C)(C)C)c(C(=O)O)c2)nc1 [Example 17, 5-(5-((4-Chlorophenyl)(methyl)amino)picolinoyl)-2-(3,3-dimethylbutanoyl)benzoic acid]",–,235 nM,–
"CN(c1ccc(Cl)cc1)c1ccc(C(=O)c2ccc(C(=O)C3(c4ccccc4)CCCC3)c(C(=O)O)c2)nc1 [Example 11, 5-(5-((4-Chlorophenyl)(methyl)amino)picolinoyl)-2-(1-phenylcyclopentanecarbonyl)benzoic acid]",–,76 nM,–
"O=C(c1ccc(Cl)cc1)c1ccc(C(=O)c2ccc(C(=O)c3ccccc3)c(C(=O)O)c2)nc1 [Example 5, 2-Benzoyl-5-(5-(4-chlorobenzoyl)picolinoyl)benzoic acid]",–,–,1290 nM
"COc1cccc(C(=O)c2ccc(C(=O)c3ccc(N(CC4CC4)c4ccc(Cl)cc4)cn3)cc2C(=O)O)c1 [Example 13, 5-(5-((4-Chlorophenyl)(cyclopropylmethyl)amino)picolinoyl)-2-(3-methoxybenzoyl)benzoic acid]",–,18 nM,–
"O=C(c1ccc(C(=O)C2(c3ccccc3)CC2)c(C(=O)O)c1)c1ccc(N(CC2CC2)c2ccc(Cl)cc2)cn1 [Example 8, 5-(5-((4-Chlorophenyl)(cyclopropylmethyl)amino)picolinoyl)-2-(1-phenylcyclopropanecarbonyl)benzoic acid]",125 µM,41 nM,–
"CN(c1ccc(Cl)cc1)c1ccc(C(=O)c2ccc(C(=O)c3cccc(C(Cl)Cl)c3)c(C(=O)O)c2)nc1 [Example 2, 5-(5-((4-Chlorophenyl)(methyl)amino)picolinoyl)-2-(3-(dichloromethyl)benzoyl)-benzoic acid]",–,–,34 nM
"CCCCCCC(=O)c1ccc(C(=O)c2ccc(N(C)c3ccc(Cl)cc3)cn2)cc1C(=O)O [1:17, 5-{5-[(4-Chlorophenyl)(methyl)amino]picolinoyl}-2-heptanoylbenzoic acid]",153 µM,–,–
"CN(c1ccc(Cl)cc1)c1ccc(C(=O)c2ccc(C(=O)C(C)(C)c3ccccc3)c(C(=O)O)c2)nc1 [Example 16, 5-(5-((4-Chlorophenyl)(methyl)amino)picolinoyl)-2-(2-methyl-2-phenylpropanoyl)benzoic acid]",–,55 nM,–

# Source: patent US20130035358A1, “Bis Aromatic Compounds for Use as LTC4 Synthase Inhibitors” (priority 2010, published 2013)
